{"source": "patent US11866695B2", "about": "“Methods and systems and related compositions for mixtures separation with a solid matrix” (CALIFORNIA INSTITUTE OF TECHNOLOGY, priority 2019, dated 2024)", "key": {"λ phage DNA [1]": {"test_system": "λ phage DNA", "assay": "Zymo Quick-DNA/RNA MagBead extraction with air dry replaced by TPW, qPCR", "format": "biochemical", "settings": "10× dilution of eluent into qPCR", "experimental": "qPCR reactions contained 1× Bio-Rad SsoFast Supermix (1725201, Bio-Rad), PCR primers (IDT) at […] each, and were supplemented with nuclease-free water up to 10 μL. Each 96-well plate (thin-wall clear well, HSP9641, Bio-Rad) was sealed (Microseal B, MSB1001, Bio-Rad) and briefly spun in a Mini Plate Spinner Centrifuge (14-100-141, Fisher Scientific). Heating and real-time imaging were performed on the Bio-Rad CFX-96 Touch Real-Time PCR Detection System by heating to 95° C. for 5 min, cycling 40 times between 95° C. for 15 s, 60° C. for 15 s, and 72° C. for 20 s, and taking a melt-curve analysis. For the E. coli DNA dilution experiment, qPCR was run for 60 cycles. Fluorescence readings were taken at the end of each extension step. Quantification cycle (Cq) was determined when the software's automated baseline corrected fluorescence reached 200 RFU.\nThe Zymo Quick-DNA/RNA Viral MagBead (R2140) was tested. For the Zymo MagBead kit, 200 μL sample was mixed with 200 μL Zymo 2×DNA/RNA Shield, 4 μL Proteinase K, and 800 μL Zymo Viral DNA/RNA Buffer. 1204 μL was added to each tube, mixed with 20 μL MagBinding Beads, and placed on an UltraRocker Rocking Platform (1660709EDU, Bio-Rad, Hercules, Calif., USA) for 10 min at max speed. Tubes were transferred to a DynaMag-2 magnetic rack (12321D, Thermo Fisher Scientific) and manufacturer instructions was followed for the remainder of the protocol. […]"}, "λ phage DNA [2]": {"test_system": "λ phage DNA", "assay": "Zymo Quick-Viral DNA/RNA kit extraction with additional TPW, LAMP with 2× diluted eluent", "format": "biochemical", "experimental": "LAMP reactions contained the following concentrations of reagents: 1× Isothermal Amplification Buffer (20 mM Tris-HCl pH 8.8, 10 mM (NH4)2SO4, 50 mM KCl, 5 mM MgSO4, 0.1% Tween-20, B0537S, NEB, Ipswich, Mass., USA), an additional 2 mM MgSO4 (B1003S, NEB), 1.4 mM deoxynucleotide mix (N0447L or N0446S, NEB), […] Invitrogen Syto-9 (S34854, Thermo Fisher Scientific), […] Invitrogen bovine serum albumin (15561020, Thermo Fisher Scientific), 320 U/mL WarmStart Bst 2.0 (M0538L, NEB), and were supplemented with nuclease-free water (not DEPC-Treated, 4387936, Thermo Fisher Scientific) up to 10 μL. LAMP primers (Integrated DNA Technologies (IDT), Coralville, Iowa, USA) were designed, ordered, and added at NEB's recommended concentrations of […] FIP/BIP, 0.2μM F3/B3, and […] LoopF/B.\nEach 96-well plate was sealed and briefly spun. Heating and real-time imaging were performed on the Bio-Rad CFX-96 Touch Real-Time PCR Detection System (1855195, Bio-Rad). Each 96-well plate was cooled to 12° C. for 2 min, held at 68° C. for 47 min with 35-second fluorescence read intervals, and a melt-curve analysis was performed. For the E. coli DNA dilution experiment, the 68° C. step was held for 105 min. Time-to-positive (TTP) was determined when the software's automated baseline corrected fluorescence reached 1000 RFU.\nThree different silica-column kits were tested, including: Zymo ZR Viral DNA/RNA Kit (outdated protocol, D7021), Zymo Quick-DNA/RNA Kit (updated protocol, D7021), and the QIAquick PCR Purification Kit (28104, Qiagen). For all silica-column kits, fresh collection tubes were used after each spin and centrifugation speeds were set to 16,000×g. Centrifugation was performed on either an Eppendorf 5415D centrifuge (Eppendorf, Hauppauge, N.Y., USA) or a Thermo Fisher Scientific AccuSpin Micro 17R centrifuge (13-100-676). It was noted that the QIAquick protocol calls for 17,900×g, but instead was run at 16,000×g which was the max speed for the Eppendorf 5415D. […]"}}, "data": [{"molecule": "CCCCCCCCCCCO", "note": "[1-undecanol]", "values": [{"measurement": "cycle delay vs manufacturer protocol", "setting": "λ phage DNA [1]", "value": 1.1, "unit": "cycle"}, {"measurement": "reduction in TTP vs manufacturer protocol", "setting": "λ phage DNA [2]; 2× eluent dilution", "value": 0.78, "unit": "min"}, {"measurement": "TTP", "setting": "λ phage DNA [2]; 2× eluent dilution, 3 columns", "value": "6.00 ± 0.04", "unit": "min"}, {"measurement": "TTP", "setting": "λ phage DNA [2]; all 27 wells", "value": "10.23 ± 0.06", "unit": "min"}]}]}
